Test [1] relates to IL-17AF-induced IL-17 signaling pathway. Briefly: Inhibition of IL-17AF-induced IL-17 signaling pathway. Format: cell-based. The settings on record: Homo sapiens; IL-17AF used instead of IL-17AA; read-out: IC50 for Inhibiting IL-AF Signaling. The method in brief:
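HEK293-derived HEK-Blue IL-17 cells (IL-17RA/RC, ACT1, NF-κB/AP-1-driven SEAP) preincubated 1 hour at 37° C with serially diluted compound from 10 μM, then stimulated with IL-17AF for 20 hours. SEAP read colorimetrically at 620 nm; IC50 from 4-parameter fit of % inhibition.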

The target of test [2] is T1, IL-17AA and IL-17RA (Homo sapiens, UniProt Q16552).
T1 construct: purchased Sino Biological 12047-H07B (IL-17AA); 10895-H02H (IL-17RA)
T1 sequence (Q16552 24-155): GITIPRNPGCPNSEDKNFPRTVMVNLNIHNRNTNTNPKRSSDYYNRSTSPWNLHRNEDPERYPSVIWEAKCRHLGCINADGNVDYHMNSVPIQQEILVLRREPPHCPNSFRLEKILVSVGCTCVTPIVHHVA
Briefly: Competitive inhibition of human IL-17AA and IL-17RA binding (HTRF). The settings on record: recombinant IL-17AA (His-tag) and IL-17RA (hFc-tag); read-out: IC50 for Inhibiting IL-AA/IL-RA Binding. The method in brief:
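His-IL-17AA (1 nM) premixed 1 h with anti-His-Tb (0.4 nM), and Fc-IL-17RA (1 nM) with anti-IgG-d2 (1 μg/mL); these are pre-mix levels. Compounds, diluted from 10 μM, preincubated 2 h RT with IL-17AA mix; IL-17RA mix then added, 20 min. 665/615 ratio vs no-compound and no-IL-17AA controls; IC50 by 4-parameter fit.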
For orientation: TR-FRET usually uses a lanthanide donor and a delayed reading to cut background.

Test [3] concerns IL-17AA-induced IL-17 signaling pathway. Put plainly: Inhibition of IL-17AA-induced IL-17 signaling pathway in HEK-Blue IL-17 reporter cells (SEAP). It counts as cell-based. To be noted: Homo sapiens; HEK-Blue IL-17 cells, IL-17AA 2.5 ng/mL, 20 hours; read-out: IC50 for Inhibiting IL-AA Signaling. The method in brief: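 HEK-Blue IL-17 cells (HEK293 expressing human IL-17RA/RC, ACT1 and NF-κB/AP-1-driven SEAP), 10,000/well, pre-incubated with compound (serial dilution from 10 μM) for 1 h at 37 °C, then stimulated with IL-17AA at 2.5 ng/mL final for 20 h. SEAP in supernatant read with Quanti-Blue at 620 nm; IC50 by 4-parameter fit.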

Test [4] deals with rat collagen induced arthritis (CIA) model. Briefly: In vivo efficacy study in rat collagen induced arthritis (CIA) model. To be noted: female Lewis rats, 20 mg/kg PO once a day, 14 days. The method, then: Example 45. In Vivo Efficacy Study in Rat Collagen Induced Arthritis (CIA) Model
Bovine type II collagen solution (Chondrex) was emulsified with an equal volume of incomplete Freund's adjuvant (IFA, Sigma) to achieve an emulsion with a collagen concentration of 1 mg/mL. Female Lewis rats were immunized with the emulsion (200 μL per rat) through subcutaneous injection at the base of tail. After seven days from the initial immunization, rats received a booster injection of the emulsion (100 μL per rat). Each paw of the rat was evaluated and scored on a 0-4 scale based on arthritis severity, and the arthritis score of each rat was the sum of scores from four paws. When the arthritis scores reached 2-3, rats were randomized into four groups and dosed once a day via oral gavage (PO) with vehicle, compounds 35, 49 and 66 for 14 days, respectively. The arthritis score was assessed every other day. Efficacy was calculated by [1−(T14−T0)/(V14−V0)]×100%, where T14 and V14 are the average arthritis scores of the treatment group and the vehicle group on Day 14 of measurement, respectively, while T0 and V0 are the average arthritis scores of the treatment group and the vehicle group on Day 0, respectively. Statistical significance of difference in arthritis scores between the treatment and vehicle groups was analyzed using one-way ANOVA followed by Dunnett's test, and P<0.05 was considered statistically significant.

Some results are limits rather than exact numbers.

`[2H]C([2H])([2H])n1nccc1C(=O)N[C@H](C(=O)Nc1ccc([C@H](C)[C@@H](NC(=O)COC)c2ncnn2CC2CC2)cc1F)C(C1CC1)C1CC1` [Compound 35, N-((S)-1,1-dicyclopropyl-3-((4-((1R,2S)-1-(1-(cyclopropylmethyl)-1H-1,2,4-triazol-5-yl)-1-(2-methoxyacetamido)propan-2-yl)-2-fluorophenyl)amino)-3-oxopropan-2-yl)-1-(methyl-d3)-1H-pyrazole-5-carboxamide]: the IC50 in test [1] was found to be 8.6 nM; in test [2] it was 5.2 nM; in test [3], 4.5 nM. In addition, the “suppression of arthritis disease progression (arthritis score)” value (“suppression” for short) in test [4] is reported as “completely suppressed arthritis disease progression”.

Consider `COCC(=O)N[C@@H](c1ncnn1CC1CC1)[C@@H](C)c1ccc(NC(=O)[C@@H](NC(=O)c2nonc2C)C(C2CC2)C2CC2)c(F)c1` [Compound 39, N-((S)-1,1-dicyclopropyl-3-((4-((1R,2S)-1-(1-(cyclopropylmethyl)-1H-1,2,4-triazol-5-yl)-1-(2-methoxyacetamido)propan-2-yl)-2-fluorophenyl)amino)-3-oxopropan-2-yl)-4-methyl-1,2,5-oxadiazole-3-carboxamide], for which the IC50 in test [1] came out at 2.6 nM; in test [2], 2.2 nM; in test [3], 1.8 nM. Also, in test [4], the “suppression” value is on record as “completely suppressed arthritis disease progression”.

Turning to `CCC(=O)N[C@@H](c1ncnn1CC1CC1)[C@@H](C)c1ccc(NC(=O)[C@@H](NC(=O)c2nonc2C)C(C2CC2)C2CC2)c(F)c1` [Compound 66, N-((S)-1,1-dicyclopropyl-3-((4-((1R,2S)-1-(1-(cyclopropylmethyl)-1H-1,2,4-triazol-5-yl)-1-propionamidopropan-2-yl)-2-fluorophenyl)amino)-3-oxopropan-2-yl)-4-methyl-1,2,5-oxadiazole-3-carboxamide], the IC50 in test [1] came to 8.4 nM; in test [2], 1.1 nM; in test [3], 3.3 nM. Also, in test [4], the “suppression” value is listed as “completely suppressed arthritis disease progression”.

As for `CCC(=O)N[C@@H](c1ncn(CC2CC2)n1)[C@@H](C)c1ccc(NC(=O)[C@@H](NC(=O)c2nonc2C)C(C2CC2)C2CC2)c(F)c1` [Compound 81, N-((S)-1,1-dicyclopropyl-3-((4-((1R,2S)-1-(1-(cyclopropylmethyl)-1H-1,2,4-triazol-3-yl)-1-propionamidopropan-2-yl)-2-fluorophenyl)amino)-3-oxopropan-2-yl)-4-methyl-1,2,5-oxadiazole-3-carboxamide], the IC50 came to 16 nM in test [1], 4.5 nM in test [2] and 9.4 nM in test [3].

In the case of `CCC(=O)N[C@@H](c1ncccc1CC1CC1)[C@@H](C)c1ccc(NC(=O)[C@@H](NC(=O)c2ccnn2CC)C(C2CC2)C2CC2)c(F)c1` [Compound 82, N-((S)-1,1-dicyclopropyl-3-((4-((1R,2S)-1-(3-(cyclopropylmethyl)pyridin-2-yl)-1-propionamidopropan-2-yl)-2-fluorophenyl)amino)-3-oxopropan-2-yl)-1-ethyl-1H-pyrazole-5-carboxamide], the IC50 came out at 8.4 nM in test [1], 5.6 nM in test [2] and 10 nM in test [3].

Regarding `CCC(=O)N[C@H](c1ncnn1CC1CC1)[C@@H](C)c1ccc(NC(=O)[C@@H](NC(=O)c2nonc2C)C(C2CC2)C2CC2)c(F)c1` [Compound 83, N-((S)-1,1-dicyclopropyl-3-((4-((1S,2S)-1-(1-(cyclopropylmethyl)-1H-1,2,4-triazol-5-yl)-1-propionamidopropan-2-yl)-2-fluorophenyl)amino)-3-oxopropan-2-yl)-4-methyl-1,2,5-oxadiazole-3-carboxamide], the results for the IC50 in test [1], in test [2] and in test [3] were 39 nM, 21 nM and 45 nM, respectively.

Regarding `CCC(=O)N[C@@H](c1ncnn1CC1CC1)[C@@H](C)c1ccc(NC(=O)[C@H](NC(=O)c2nonc2C)C(C2CC2)C2CC2)c(F)c1` [Compound 84, N-((R)-1,1-dicyclopropyl-3-((4-((1R,2S)-1-(1-(cyclopropylmethyl)-1H-1,2,4-triazol-5-yl)-1-propionamidopropan-2-yl)-2-fluorophenyl)amino)-3-oxopropan-2-yl)-4-methyl-1,2,5-oxadiazole-3-carboxamide], the figures for the IC50 in test [1], in test [2] and in test [3] were 85 nM, 31 nM and 63 nM, respectively.

`[2H]C([2H])([2H])n1nccc1C(=O)N[C@@H](C(=O)Nc1ccc([C@H](C)[C@@H](NC(=O)CC)c2ncnn2CC2CC2)cc1F)C(C1CC1)C1CC1` [Compound 85, N-((R)-1,1-dicyclopropyl-3-((4-((1R,2S)-1-(1-(cyclopropylmethyl)-1H-1,2,4-triazol-5-yl)-1-propionamidopropan-2-yl)-2-fluorophenyl)amino)-3-oxopropan-2-yl)-1-(methyl-d3)-1H-pyrazole-5-carboxamide]: the IC50 in test [1] was determined as 810 nM; in test [2] it was 165 nM; in test [3], 539 nM.

With `[2H]C([2H])([2H])n1ccc(C(=O)N[C@H](C(=O)Nc2ccc([C@H](C)[C@@H](NC(=O)CC)c3ncnn3CC3CC3)cc2F)C(C2CC2)C2CC2)n1` [Compound 86, N-((S)-1,1-dicyclopropyl-3-((4-((1R,2S)-1-(1-(cyclopropylmethyl)-1H-1,2,4-triazol-5-yl)-1-propionamidopropan-2-yl)-2-fluorophenyl)amino)-3-oxopropan-2-yl)-1-(methyl-d3)-1H-pyrazole-3-carboxamide], the IC50 is 228 nM in test [1], 23 nM in test [2] and 143 nM in test [3].

For `[2H]C([2H])([2H])n1nccc1C(=O)N[C@H](C(=O)Nc1ccc([C@H](C)[C@H](NC(=O)CC)c2ncnn2CC2CC2)cc1F)C(C1CC1)C1CC1` [Compound 87, N-((S)-1,1-dicyclopropyl-3-((4-((1S,2S)-1-(1-(cyclopropylmethyl)-1H-1,2,4-triazol-5-yl)-1-propionamidopropan-2-yl)-2-fluorophenyl)amino)-3-oxopropan-2-yl)-1-(methyl-d3)-1H-pyrazole-5-carboxamide], the IC50 in test [1] is over 2000 nM; in test [2] it was 1980 nM; in test [3], over 2000 nM.

Turning to `CCn1nccc1C(=O)N[C@H](C(=O)Nc1ccc([C@H](C)[C@@H](NC(=O)COC)c2nnc3cnccn23)cc1F)C(C1CC1)C1CC1` [Compound 88, N-((S)-1-((4-((1R,2S)-1-([1,2,4]triazolo[4,3-a]pyrazin-3-yl)-1-(2-methoxyacetamido)propan-2-yl)-2-fluorophenyl)amino)-3,3-dicyclopropyl-1-oxopropan-2-yl)-1-ethyl-1H-pyrazole-5-carboxamide], the IC50 in test [1] turned out to be 98 nM; in test [2], 23 nM; in test [3] it was 42 nM.

(Values after US20260083708A1, “IL-17 MODULATORS AND USES THEREOF” (NNOCARE PHARMA INC., priority 2024, published 2026).)
